Reference: patent US20230247994A1, “HETEROCYCLENE DERIVATIVES AS PEST CONTROL AGENTS” (Bayer Aktiengesellschaft, priority 2020, published 2023)

What was measured:
Type in all cases: in vivo
[1] = tested on: Spodoptera frugiperda; assay: Spodoptera frugiperda spray test (maize leaf disks); conditions: foliar, 168 h, caterpillars, after 7 days, 100% = all caterpillars killed, read-out: efficacy in %; for pest or weed control at 100 g/ha: application rate 100 g/ha
From the text: Spodoptera frugiuerda—Spray Test
Solvent: 78.0 parts by weight of acetone • • 1.5 parts by weight of dimethylformamide
Emulsifier: alkylaryl polyglycol ether
An appropriate active ingredient formulation is produced by dissolving 1 part by weight of active ingredient with the stated parts by weight of solvent and making the solution up to the desired concentration with water containing an emulsifier concentration of 1000 ppm. Further test concentrations are produced by diluting the formulation with emulsifier-containing water.
Leaf disks of maize (Zea mays) are sprayed with an active ingredient formulation of the desired concentration and, after drying, populated with caterpillars of the fall armyworm (Spodopterafrugiperda).
After 7 days, efficacy in % is determined. 100% means that all of the caterpillars have been killed; 0% means that none of the caterpillars have been killed.

[2] = tested on: Diabrotica balteata; assay: Diabrotica balteata spray test (germinated wheat grains); conditions: 168 h, application rate 100 g/ha (=32 μg/cavity), after 7 days, beetle larvae on wheat, 100% = all wheat plants grown as in untreated, uninfected control, read-out: efficacy in %
From the text: Diabrotica Balteata—Spray Test Solvent: 78 parts by weight of acetone • • 1.5 parts by weight of dimethylformamide Emulsifier: alkylaryl polyglycol ether An appropriate active ingredient formulation is produced by dissolving 1 part by weight of active ingredient with the stated parts by weight of solvent and making the solution up to the desired concentration with water containing an emulsifier concentration of 1000 ppm. Further test concentrations are produced by diluting the formulation with emulsifier-containing water. Pre-swollen wheat grains (Triticum aestivum) are incubated in a multiwell plate filled with agar and a little water for one day (5 seed grains per cavity). The germinated wheat grains are sprayed with an active ingredient formulation of the desired concentration. Subsequently, each cavity is infected with 10-20 beetle larvae of Diabrotica balteata. After 7 days, efficacy in % is determined. 100% means that all wheat plants have grown as in the untreated, uninfected control; 0% means that no wheat plant has grown.

[3] = tested on: Nezara viridula; assay: Nezara viridula spray test (barley plants); conditions: 96 h, application rate 500 g/ha, larvae, after 4 days, 100% = all shield bugs killed, read-out: efficacy in %
From the text: (§1) Nezara viridula—Spray Test Solvent: 78.0 parts by weight of acetone • • 1.5 parts by weight of dimethylformamide Emulsifier: alkylaryl polyglycol ether An appropriate active ingredient formulation is produced by dissolving 1 part by weight of active ingredient with the stated parts by weight of solvent and making the solution up to the desired concentration with water containing an emulsifier concentration of 1000 ppm. Further test concentrations are produced by diluting the formulation with emulsifier-containing water. Barley plants (Hordeum vulgare) are sprayed with an active ingredient formulation of the desired concentration and are infected with larvae of the Southern green shield bug (Nezara viridula). After 4 days, efficacy in % is determined. 100% means that all of the shield bugs have been killed; 0% means that none of the shield bugs have been killed.

[4] = tested on: Nilaparvata lugens; assay: Nilaparvata lugens test (rice plants); conditions: application rate 500 g/ha, spray, after 4 days, 100% = all planthoppers killed
From the text: Nilaparvata lugens Test Solvent: 78.0 parts by weight of acetone • • 1.5 parts by weight of dimethylformamide Emulsifier: alkylaryl polyglycol ether An appropriate active ingredient formulation is produced by dissolving 1 part by weight of active ingredient with the stated parts by weight of solvent and making the solution up to the desired concentration with water containing an emulsifier concentration of 1000 ppm. Further test concentrations are produced by diluting the formulation with emulsifier-containing water. Rice plants (Oryza sativa) are sprayed with the active ingredient formulation of the desired concentration and then infected with the brown planthopper (Nilaparvata lugens). After 4 days, efficacy in % is determined. 100% means that all of the planthoppers have been killed; 0% means that none of the planthoppers have been killed.

[5] = tested on: Meloidogyne incognita; assay: Meloidogyne incognita test (lettuce, gall formation); conditions: application rate 20 ppm, after 14 days, 100% = no galls found
From the text: Meloidogyne Incognita Test Solvent: 125.0 parts by weight of acetone An appropriate active ingredient formulation is produced by mixing 1 part by weight of active ingredient with the stated amount of solvent and diluting the concentrate to the desired concentration with water. Vessels are filled with sand, active ingredient solution, an egg/larvae suspension of the southern root-knot nematode (Meloidogyne incognita) and lettuce seeds. The lettuce seeds germinate and the plants develop. The galls develop on the roots. After 14 days, the nematicidal efficacy in % is determined by the formation of galls. 100% means that no galls were found; 0% means that the number of galls on the treated plants corresponds to the untreated control.

[6] = tested on: Myzus persicae; assay: Myzus persicae spray test (Chinese cabbage leaf disks); conditions: application rate 100 g/ha, after 5 days, 100% = all aphids killed
From the text: as §1, with “Myzus persicae—Spray” for “Nezara viridula—Spray”, “78” for “78.0”, “Leaf disks of Chinese cabbage (Brassica pekinensis) infested by all stages of the green peach aphid (Myzus persicae)” for “Barley plants (Hordeum vulgare)”, “concentration.” for “concentration and are infected with larvae of the Southern green shield bug (Nezara viridula).”, “5” for “4”, “aphids” for “shield bugs”

[7] = tested on: Myzus persicae; assay: Myzus persicae oral test; conditions: application rate 20 ppm, after 5 days, 100% = all aphids killed
Protocol: Myzus persicae—Oral Test Solvent: 100 parts by weight of acetone An appropriate active ingredient formulation is produced by dissolving 1 part by weight of active ingredient with the specified parts by weight of solvent and making the solution up to the desired concentration with water. 50 μl of the active ingredient formulation is transferred into microtiter plates and made up to a final volume of 200 μl with 150 μl of IPL41 insect medium (33%+15% sugar). Subsequently, the plates are sealed with parafilm, which a mixed population of green peach aphids (Myzus persicae) within a second microtiter plate is able to puncture and imbibe the solution. After 5 days, efficacy in % is determined. 100% means that all of the aphids have been killed; 0% means that none of the aphids have been killed.

[8] = tested on: Myzus persicae; assay: Myzus persicae spray test (bell pepper plants); conditions: application rate 20 ppm, after 6 days, 100% = all aphids killed
From the text: Myzus persicae—spray test Solvent: 14 parts by weight of dimethylformamide Emulsifier: alkylaryl polyglycol ether An appropriate active ingredient formulation is produced by dissolving 1 part by weight of active ingredient with the stated parts by weight of solvent and making the solution up to the desired concentration with water containing an emulsifier concentration of 1000 ppm. Further test concentrations are produced by diluting the formulation with emulsifier-containing water. If the addition of ammonium salts or/and penetration enhancers is required, these are each added in a concentration of 1000 ppm to the formulation solution. Bell pepper plants (Capsicum annuum) severely infested with the green peach aphid (Myzus persicae) are treated by spraying with the active ingredient formulation in the desired concentration. After 6 days, the kill in % is determined. 100% means that all of the aphids have been killed; 0% means that none of the aphids have been killed.

| SMILES | pest or weed control at 100 g/ha [1] [%] | pest or weed control at 100 g/ha [2] [%] | pest or weed control at 500 g/ha [3] [%] | efficacy in % [4] [%] | nematicidal efficacy in % (formation of galls) [5] [%] | efficacy in % [6] [%] | efficacy in % [7] [%] | pest or weed control at 500 g/ha ([1]; application rate 500 g/ha) [%] | kill in % (efficacy) [8] [%] |
| --- | --- | --- | --- | --- | --- | --- | --- | --- | --- |
| CCS(=O)(=O)c1c(-c2nc3cc4c(cc3n2C)OC(F)(F)C(F)(F)O4)nc(-c2cccc(Br)n2)n1C [Example I-30, 2-[2-(6-Bromopyridin-2-yl)-5-(ethylsulfonyl)-1-methyl-1H-imidazol-4-yl]-6,6,7,7-tetrafluoro-1-methyl-6,7-dihydro-1H-[1,4]dioxino[2,3-f]benzimidazole] | 100 | 100 | 100 | 100 | – | – | – | – | – |
| CCS(=N)(=O)c1c(-c2nc3cc4c(cc3n2C)OC(F)(F)C(F)(F)O4)nc(-c2ccc(F)cc2)n1C (centres unmarked) [Example I-38] | 100 | 100 | 90 | – | 100 | 90 | – | – | – |
| CCS(=N)(=O)c1c(-c2nc3cc4c(cc3n2C)OC(F)(F)C(F)(F)O4)nc(-c2ccc(Cl)cc2)n1C (racemic) [Example I-34, rac-2-[2-(4-Chlorophenyl)-5-(ethylsulfonimidoyl)-1-methyl-1H-imidazol-4-yl]-6,6,7,7-tetrafluoro-1-methyl-6,7-dihydro-1H-[1,4]dioxino[2,3-f]benzimidazole] | 100 | 100 | – | – | 90 | 90 | – | – | – |
| CCS(=O)(=O)c1c(-c2nc3cc4c(cc3[nH]2)OC(F)(F)C(F)(F)O4)nc(C2CC2)n1C [Example I-8, 2-[2-Cyclopropyl-5-(ethylsulfonyl)-1-methyl-1H-imidazol-4-yl]-6,6,7,7-tetrafluoro-6,7-dihydro-1H-[1,4]dioxino[2,3-f]benzimidazole] | – | 100 | – | – | 90 | – | 100 | 100 | – |
| CCS(=N)(=O)c1c(-c2nc3cc4c(cc3n2C)OC(F)(F)C(F)(F)O4)nc(-c2ccc(C(F)(F)F)cc2)n1C (centres unmarked) [Example I-37] | 100 | 80 | – | – | 90 | – | – | – | – |
| CCS(=O)(=O)c1c(-c2nc3cc4c(cc3n2C)OC(F)(F)C(F)(F)O4)nc(-c2ccc(C3(C#N)CC3)cc2)n1C [Example I-6, 1-{4-[5-(Ethylsulfonyl)-1-methyl-4-(6,6,7,7-tetrafluoro-1-methyl-6,7-dihydro-1H-[1,4]dioxino[2,3-f]benzimidazol-2-yl)-1H-imidazol-2-yl]phenyl}cyclopropanecarbonitrile] | 100 | 100 | 100 | – | 100 | – | – | – | – |
| CCS(=O)(=O)c1c(-c2nc3cc4c(cc3n2C)OC(F)(F)C(F)(F)O4)nc(-c2cccc(Cl)n2)n1C [Example I-21, 2-[2-(6-Chloropyridin-2-yl)-5-(ethylsulfonyl)-1-methyl-1H-imidazol-4-yl]-6,6,7,7-tetrafluoro-1-methyl-6,7-dihydro-1H-[1,4]dioxino[2,3-f]benzimidazole] | 100 | 100 | 100 | 90 | – | – | – | – | – |
| CCS(=O)(=O)c1c(-c2nc3cc4c(cc3n2C)OC(F)(F)C(F)(F)O4)nc(C2CC2)n1C [Example I-9, 2-[2-Cyclopropyl-5-(ethylsulfonyl)-1-methyl-1H-imidazol-4-yl]-6,6,7,7-tetrafluoro-1-methyl-6,7-dihydro-1H-[1,4]dioxino[2,3-f]benzimidazole] | 83 | 100 | – | – | – | – | – | – | 99 |
| CCS(=O)(=O)c1c(-c2nc3cc4c(cc3n2C)OC(F)(F)C(F)(F)O4)nc(-c2ccccc2)n1C [Example I-16, 2-[5-(Ethylsulfonyl)-1-methyl-2-phenyl-1H-imidazol-4-yl]-6,6,7,7-tetrafluoro-1-methyl-6,7-dihydro-1H-[1,4]dioxino[2,3-f]benzimidazole] | 100 | 100 | 100 | – | – | 90 | – | – | – |
| CCS(=O)(=O)c1c(-c2nc3cc4c(cc3n2C)OC(F)(F)C(F)(F)O4)nc(-c2ccc(Cl)cc2)n1C [Example I-4, 2-[2-(4-Chlorophenyl)-5-(ethylsulfonyl)-1-methyl-1H-imidazol-4-yl]-6,6,7,7-tetrafluoro-1-methyl-6,7-dihydro-1H-[1,4]dioxino[2,3-f]benzimidazole] | 100 | 80 | – | – | 90 | – | – | – | – |
| CCS(=O)(=O)c1c(-c2nc3cc4c(cc3n2C)OC(F)(F)C(F)(F)O4)nc(-c2cccc(C3(C#N)CC3)n2)n1C [Example I-28, 1-{6-[5-(Ethylsulfonyl)-1-methyl-4-(6,6,7,7-tetrafluoro-1-methyl-6,7-dihydro-1H-[1,4]dioxino[2,3-f]benzimidazol-2-yl)-1H-imidazol-2-yl]pyridin-2-yl}cyclopropanecarbonitrile] | 100 | – | 100 | 100 | – | – | – | – | – |
